One assay has as its system TNF-α. Description: TNF-α release from LPS-stimulated THP-1 cells, ELISA. Type of assay: cell-based. Conditions: pretreatment 1 h, LPS 1 μg/mL 24 h, P<0.05. How it is done: (§1) THP-1 cells were seeded in a 6-well plate at 2×10^5 cells/well and cultured conventionally. After the cells reached 80%, they were induced with 100 ng/ml of PMA for 12 h, and then the original medium was discarded, and new complete medium was added. The control group was pretreated with B4 (0.1, 1, 10 μM) for 1 h, and the experimental group was pretreated with A3-6 (0.1, 1, 10 μM) for 1 h. After 1 h, the other groups were removed from the blank group and incubated with 1 μg/mL LPS for 24 h. The culture supernatant was collected, and the IL-6 and TNF-α contents were finally determined and calculated using ELISA kits step by step according to their instructions. The effect of A3-6 on the release of inflammatory factors was tested by ELISA kits.
Background: In an ELISA, binding on a coated surface is turned into a signal by an enzyme label.

A further assay deals with DSS-induced colitis mice. Put plainly: DSS-induced colitis in mice (DAI score, colon length). As to conditions: B4 group (100 mg/kg by gavage), 5% DSS mice. Type of assay: in vivo, ICR mice. As for the experimental part:
ICR mice were fed normally for 3 days, with free access to water and food during the feeding period. After weighing, the mice were randomly divided into groups, including normal group, model group (DSS group), A3-6 (15, 30, 60 mg/kg) group, A3-6 (60 mg/kg)+DADA (50 mg/kg) group, and positive drug B4 (100 mg/kg) group. A3-6 was administered by gavage with hydroxypropyl β-cyclodextrin (1:3), B4 was dissolved in water and administered by gavage, and DADA (50 mg/kg) was injected intraperitoneally, once a day. The day before modeling, the weight was weighed and A3-6, DADA and B4 were pre-administered according to body weight. After 24 hours of administration, DSS was dissolved in the drinking water for mice. The mice in the model group and the administration group were continuously given 5% DSS for 8 days and weighed every day. […] After the 9th day of administration, the mice were sacrificed, blood and colon were collected, and the length of the colon was measured.
A3-6 (15 mg/kg, 30 mg/kg and 60 mg/kg) or B4 (100 mg/kg) were administered by gavage once daily for 9 days. […] The DAI scores of each group of mice were calculated daily according to the scoring requirements.
The mice colitis model was constructed using 5% DSS to evaluate the therapeutic effect of A3-6 on inflammatory bowel disease (IBD)-. […] The DAI score of the mice was comprehensively evaluated.

In a further assay the test system is IL-6. Description: IL-6 release from LPS-stimulated THP-1 cells, ELISA. Type of assay: cell-based. As to conditions: pretreatment 1 h, LPS 1 μg/mL 24 h, P<0.05. How it is done:
as §1

This is an account of results in patent US20250066409A1, “DERIVATIVE OF PENTACYCLIC TRITERPENOIDAL SAPONIN AND ITS PREPARATION METHOD AND APPLICATION” (SOOCHOW UNIVERSITY, priority 2022, published 2025).

Each structure is given as a SMILES string.

Regarding `C=C(C)[C@@H]1CC[C@]2(C(=O)O[C@@H]3O[C@H](CO[C@@H]4O[C@H](CO)[C@@H](O[C@@H]5O[C@@H](C)[C@H](O)[C@@H](O)[C@H]5O)[C@H](O)[C@H]4O)[C@@H](O)[C@H](O)[C@H]3O)CC[C@]3(C)[C@H](CC[C@@H]4[C@@]5(C)CC[C@H](O[C@@H]6OC[C@H](O)[C@H](O)[C@H]6O[C@@H]6O[C@@H](C)[C@H](O)[C@@H](O)[C@H]6O)[C@@](C)(CO)[C@@H]5CC[C@]43C)[C@@H]12` [B4, anemoside B4], the “release of TNF-α compared with the model group” value in the assay with TNF-α (1 μM) and with TNF-α (10 μM) was “significantly reduced” each time. The colon length result with DSS-induced colitis mice is “could restore the colon length”. In addition, the “release of IL-6 compared with the model group” value in the assay on IL-6 (1 μM) and in the assay with IL-6 (10 μM) was “significantly reduced” throughout.
